Laboratory results reported in ChEMBL document CHEMBL1201862, “PubChem BioAssay data set” (2004).
The source made the active and inactive calls.

Legend:
[1] = biological target: Ion channel NompC (Danio rerio, UniProt Q7T1G6); test: Dose response cell-based high-throughput screening assay for agonists of the transient receptor potential channel N1 (TRPN1). [Related pubchem assays (depositor defined):AID1424, AID1448]; format: functional
[2] = biological target: T1, RNA-binding protein pos-1 (Caenorhabditis elegans, UniProt G5EF15); test: disruptors of C. elegans POS-1 RNA interaction – biochemical, fluorescence polarization, dose response (AID 1964);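 note: purified POS-1 fused to maltose binding protein made in E. coli; potency of compounds blocking POS-1 binding to fluorescent RNA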
T1 sequence (G5EF15 whole entry): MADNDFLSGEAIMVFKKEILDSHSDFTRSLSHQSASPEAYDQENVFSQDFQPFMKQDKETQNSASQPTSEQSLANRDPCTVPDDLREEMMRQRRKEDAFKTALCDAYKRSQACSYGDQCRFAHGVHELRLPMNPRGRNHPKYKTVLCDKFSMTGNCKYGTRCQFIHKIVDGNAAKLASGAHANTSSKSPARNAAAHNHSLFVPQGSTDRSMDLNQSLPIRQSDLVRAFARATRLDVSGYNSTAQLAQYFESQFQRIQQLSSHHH

[3] = biological target: Mucolipin-3 (Homo sapiens, UniProt Q8TDD5); test: Fluorescence counterscreen assay for […] agonists: dose response cell-based high-throughput screening assay to identify agonists of the transient receptor potential channel ML3 (TRPML3). [Related pubchem assays: 1424, 1448 ]; format: functional
Mucolipin-3, sequence (Q8TDD5 whole entry): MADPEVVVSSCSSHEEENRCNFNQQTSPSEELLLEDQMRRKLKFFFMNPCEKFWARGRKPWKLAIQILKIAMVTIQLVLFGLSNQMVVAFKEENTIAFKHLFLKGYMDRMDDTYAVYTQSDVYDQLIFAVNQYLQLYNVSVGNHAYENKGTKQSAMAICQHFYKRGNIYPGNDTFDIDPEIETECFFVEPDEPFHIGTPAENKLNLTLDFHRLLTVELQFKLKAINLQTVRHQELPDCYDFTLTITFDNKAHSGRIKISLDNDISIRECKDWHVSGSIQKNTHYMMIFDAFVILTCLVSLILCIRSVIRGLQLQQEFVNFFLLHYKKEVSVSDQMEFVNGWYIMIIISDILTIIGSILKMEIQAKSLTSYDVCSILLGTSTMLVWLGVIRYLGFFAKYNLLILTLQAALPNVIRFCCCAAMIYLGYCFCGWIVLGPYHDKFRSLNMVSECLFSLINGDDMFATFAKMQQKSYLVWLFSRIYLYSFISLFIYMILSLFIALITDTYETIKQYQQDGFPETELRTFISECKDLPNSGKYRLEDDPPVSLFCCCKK

[4] = biological target: T2, Zinc finger protein mex-5 (Caenorhabditis elegans, UniProt Q9XUB2); test: potency of MEX-5 RNA-binding blockers – biochemical, C. elegans, fluorescence polarization, dose response (AID 1960)
T2 sequence (Q9XUB2 whole entry): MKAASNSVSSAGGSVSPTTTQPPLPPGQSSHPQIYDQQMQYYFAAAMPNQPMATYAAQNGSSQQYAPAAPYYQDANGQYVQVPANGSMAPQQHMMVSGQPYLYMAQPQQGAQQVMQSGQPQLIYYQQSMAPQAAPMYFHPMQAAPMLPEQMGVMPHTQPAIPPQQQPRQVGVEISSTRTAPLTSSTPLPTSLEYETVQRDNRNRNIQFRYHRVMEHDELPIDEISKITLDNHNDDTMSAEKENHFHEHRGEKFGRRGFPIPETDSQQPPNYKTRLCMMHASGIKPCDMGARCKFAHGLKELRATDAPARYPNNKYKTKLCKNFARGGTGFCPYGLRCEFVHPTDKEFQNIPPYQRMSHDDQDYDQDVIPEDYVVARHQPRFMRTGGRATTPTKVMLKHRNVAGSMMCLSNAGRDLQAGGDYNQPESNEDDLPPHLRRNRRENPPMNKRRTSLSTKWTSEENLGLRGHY

[5] = biological target: Metabotropic glutamate receptor 2 (Rattus norvegicus, UniProt P31421); test: mGluR2 modulation, off-target check – cell-based, rat, selectivity assay for mGluR4 modulator project (AID 2188); format: functional
[6] = biological target: Metabotropic glutamate receptor 7 (Rattus norvegicus, UniProt P35400); test: Modulation of the Metabotropic Glutamate Receptor mGluR4: Selectivity at mGluR7. [Related pubchem assays (depositor defined):AID2437, AID2807]; format: functional
[7] = biological target: Metabotropic glutamate receptor 1 (Rattus norvegicus, UniProt P23385); test: Modulation of the Metabotropic Glutamate Receptor mGluR4: Selectivity at mGluR1. [Related pubchem assays (depositor defined):AID2437, AID2807]; format: functional
Metabotropic glutamate receptor 1, sequence (P23385 whole entry): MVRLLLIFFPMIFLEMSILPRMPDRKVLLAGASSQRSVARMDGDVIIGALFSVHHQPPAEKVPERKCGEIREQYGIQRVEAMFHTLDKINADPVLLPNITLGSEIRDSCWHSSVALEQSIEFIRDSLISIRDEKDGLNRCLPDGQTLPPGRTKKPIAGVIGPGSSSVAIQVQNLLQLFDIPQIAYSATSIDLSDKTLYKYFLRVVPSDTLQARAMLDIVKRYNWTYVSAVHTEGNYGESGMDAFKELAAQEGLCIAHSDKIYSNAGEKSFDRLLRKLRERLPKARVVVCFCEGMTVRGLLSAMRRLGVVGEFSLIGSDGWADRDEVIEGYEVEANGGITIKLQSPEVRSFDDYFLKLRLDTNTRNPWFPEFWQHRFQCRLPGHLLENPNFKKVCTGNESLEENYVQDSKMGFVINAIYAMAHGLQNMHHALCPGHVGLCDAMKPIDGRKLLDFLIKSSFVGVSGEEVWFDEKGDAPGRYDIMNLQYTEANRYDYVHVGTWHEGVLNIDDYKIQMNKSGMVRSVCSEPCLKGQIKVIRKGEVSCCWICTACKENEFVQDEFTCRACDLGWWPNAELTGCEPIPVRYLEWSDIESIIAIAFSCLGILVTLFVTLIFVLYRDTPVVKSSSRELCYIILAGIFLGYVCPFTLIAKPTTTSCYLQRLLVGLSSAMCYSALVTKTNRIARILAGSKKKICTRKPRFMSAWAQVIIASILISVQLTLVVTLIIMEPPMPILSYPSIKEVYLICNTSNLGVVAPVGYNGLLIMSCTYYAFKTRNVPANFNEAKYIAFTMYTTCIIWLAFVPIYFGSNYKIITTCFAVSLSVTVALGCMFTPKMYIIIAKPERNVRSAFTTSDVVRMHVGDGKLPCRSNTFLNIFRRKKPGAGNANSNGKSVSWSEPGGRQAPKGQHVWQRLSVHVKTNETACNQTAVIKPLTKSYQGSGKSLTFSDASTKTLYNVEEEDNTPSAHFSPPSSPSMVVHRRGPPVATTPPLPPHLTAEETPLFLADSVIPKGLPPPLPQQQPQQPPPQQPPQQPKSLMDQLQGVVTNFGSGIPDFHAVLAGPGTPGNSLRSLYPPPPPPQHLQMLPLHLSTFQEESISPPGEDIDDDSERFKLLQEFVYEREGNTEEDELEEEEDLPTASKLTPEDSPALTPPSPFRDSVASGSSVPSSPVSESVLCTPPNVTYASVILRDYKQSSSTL

[8] = biological target: T3, Kappa-type opioid receptor (Homo sapiens, UniProt P41145); test: SAR analysis of Antagonists of the Kappa Opioid Receptor (KOR) using an Image-Based Assay - Set 3. [Related pubchem assays (depositor defined):AID1777, AID1785]; format: functional
T3 sequence (P41145 whole entry): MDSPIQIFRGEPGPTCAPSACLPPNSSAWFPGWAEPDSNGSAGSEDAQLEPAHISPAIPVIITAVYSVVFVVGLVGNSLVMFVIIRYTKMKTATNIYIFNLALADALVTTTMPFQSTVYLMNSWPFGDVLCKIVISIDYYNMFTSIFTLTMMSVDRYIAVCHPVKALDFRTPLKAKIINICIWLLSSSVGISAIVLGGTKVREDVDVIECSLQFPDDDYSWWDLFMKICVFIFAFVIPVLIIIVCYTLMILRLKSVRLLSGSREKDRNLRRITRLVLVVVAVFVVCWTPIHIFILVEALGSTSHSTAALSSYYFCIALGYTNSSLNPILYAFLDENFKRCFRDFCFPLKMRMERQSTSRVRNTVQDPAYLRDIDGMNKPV

[9] = biological target: Mu-type opioid receptor (Homo sapiens, UniProt P35372); test: SAR Analysis of Antagonists of the MOR Receptor using an Image-Based Assay - Set 3. [Related pubchem assays (depositor defined):AID1777, AID1785, AID1786, AID1966, AID2133, AID2136, AID2284, AID2285, AID2420]; format: functional
Mu-type opioid receptor, sequence (P35372 whole entry): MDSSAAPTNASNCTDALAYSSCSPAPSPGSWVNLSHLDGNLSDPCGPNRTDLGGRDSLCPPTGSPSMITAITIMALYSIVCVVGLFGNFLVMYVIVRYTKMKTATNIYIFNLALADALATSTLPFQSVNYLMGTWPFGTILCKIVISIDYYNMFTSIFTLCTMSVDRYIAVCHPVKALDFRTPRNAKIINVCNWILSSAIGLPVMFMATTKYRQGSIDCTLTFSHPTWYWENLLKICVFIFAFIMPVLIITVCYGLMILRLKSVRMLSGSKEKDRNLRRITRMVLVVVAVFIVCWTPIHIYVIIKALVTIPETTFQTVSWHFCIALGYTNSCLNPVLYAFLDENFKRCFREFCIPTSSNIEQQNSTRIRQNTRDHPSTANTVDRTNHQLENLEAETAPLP

[10] = biological target: Delta-type opioid receptor (Homo sapiens, UniProt P41143); test: SAR Analysis of Antagonists of the DOR Receptor using an Image-Based Assay - Set 3. [Related pubchem assays (depositor defined):AID1777, AID1785]; format: functional;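 note: U2OS cells expressing DOR1 and beta-arrestin GFP stimulated with 100 nM SNC80; imaging of GFP-tagged beta-arrestin moving into spots after receptor activation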
Delta-type opioid receptor, sequence (P41143 whole entry): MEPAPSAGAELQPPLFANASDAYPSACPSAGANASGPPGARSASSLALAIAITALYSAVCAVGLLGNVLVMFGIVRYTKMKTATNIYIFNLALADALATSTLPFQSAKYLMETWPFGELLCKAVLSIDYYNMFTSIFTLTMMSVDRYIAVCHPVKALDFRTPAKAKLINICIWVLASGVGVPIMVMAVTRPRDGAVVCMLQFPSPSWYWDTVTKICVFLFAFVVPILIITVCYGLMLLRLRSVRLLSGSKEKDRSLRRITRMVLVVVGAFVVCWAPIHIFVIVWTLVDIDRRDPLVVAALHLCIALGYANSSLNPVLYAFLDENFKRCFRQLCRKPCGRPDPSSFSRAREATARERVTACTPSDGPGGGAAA

[11] = biological target: T3, Kappa-type opioid receptor; test: SAR analysis of small molecule antagonists of the kappa opioid receptor via a luminescent beta-arrestin assay - Set 3. [Related pubchem assays (depositor defined):AID1777, AID1778, AID1785, AID1786, AID1966, AID2133, AID2136, AID2285, AID2495]; format: functional
[12] = biological target: Sphingosine 1-phosphate receptor 4 (Homo sapiens, UniProt O95977); test: Late-stage fluorescence dose response cell-based assay to identify agonists of the Sphingosine 1-Phosphate Receptor 4 (S1P4): purchased compounds EC50. [Related pubchem assays (depositor defined):AID1509, AID1523, AID1563, AID1686, AID1701, AID1801]; format: functional
[13] = biological target: T4, E3 ubiquitin-protein ligase XIAP (Homo sapiens, UniProt P98170); test: small molecules displacing peptide from XIAP – biochemical, IAP family, fluorescence polarization (AID 1018); format: functional
T4 sequence (P98170 whole entry): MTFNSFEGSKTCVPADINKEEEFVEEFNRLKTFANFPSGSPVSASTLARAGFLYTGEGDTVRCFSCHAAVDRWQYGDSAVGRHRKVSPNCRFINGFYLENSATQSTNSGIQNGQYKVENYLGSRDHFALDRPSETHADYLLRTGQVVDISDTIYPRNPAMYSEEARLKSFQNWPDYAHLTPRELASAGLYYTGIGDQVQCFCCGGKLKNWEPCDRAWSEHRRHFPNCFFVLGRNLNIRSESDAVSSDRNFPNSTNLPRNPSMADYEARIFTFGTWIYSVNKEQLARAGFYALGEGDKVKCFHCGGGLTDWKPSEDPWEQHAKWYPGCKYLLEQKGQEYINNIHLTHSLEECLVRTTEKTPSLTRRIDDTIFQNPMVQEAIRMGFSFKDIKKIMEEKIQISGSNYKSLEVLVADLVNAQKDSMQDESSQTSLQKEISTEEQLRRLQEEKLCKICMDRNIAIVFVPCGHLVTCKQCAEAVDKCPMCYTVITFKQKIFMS

[14] = biological target: T4, E3 ubiquitin-protein ligase XIAP; test: Counter Screen using XIAP-Bir3 for Chemical Antagonists of Bir1/2 domains of IAP-family anti-apoptotic proteins. [Related pubchem assays (depositor defined):AID1018, AID1449, AID1514, AID1638, AID1749, AID1750, AID488957, AID488963]

Ion channel NompC, sequence (Q7T1G6 whole entry, the tested form may be a part): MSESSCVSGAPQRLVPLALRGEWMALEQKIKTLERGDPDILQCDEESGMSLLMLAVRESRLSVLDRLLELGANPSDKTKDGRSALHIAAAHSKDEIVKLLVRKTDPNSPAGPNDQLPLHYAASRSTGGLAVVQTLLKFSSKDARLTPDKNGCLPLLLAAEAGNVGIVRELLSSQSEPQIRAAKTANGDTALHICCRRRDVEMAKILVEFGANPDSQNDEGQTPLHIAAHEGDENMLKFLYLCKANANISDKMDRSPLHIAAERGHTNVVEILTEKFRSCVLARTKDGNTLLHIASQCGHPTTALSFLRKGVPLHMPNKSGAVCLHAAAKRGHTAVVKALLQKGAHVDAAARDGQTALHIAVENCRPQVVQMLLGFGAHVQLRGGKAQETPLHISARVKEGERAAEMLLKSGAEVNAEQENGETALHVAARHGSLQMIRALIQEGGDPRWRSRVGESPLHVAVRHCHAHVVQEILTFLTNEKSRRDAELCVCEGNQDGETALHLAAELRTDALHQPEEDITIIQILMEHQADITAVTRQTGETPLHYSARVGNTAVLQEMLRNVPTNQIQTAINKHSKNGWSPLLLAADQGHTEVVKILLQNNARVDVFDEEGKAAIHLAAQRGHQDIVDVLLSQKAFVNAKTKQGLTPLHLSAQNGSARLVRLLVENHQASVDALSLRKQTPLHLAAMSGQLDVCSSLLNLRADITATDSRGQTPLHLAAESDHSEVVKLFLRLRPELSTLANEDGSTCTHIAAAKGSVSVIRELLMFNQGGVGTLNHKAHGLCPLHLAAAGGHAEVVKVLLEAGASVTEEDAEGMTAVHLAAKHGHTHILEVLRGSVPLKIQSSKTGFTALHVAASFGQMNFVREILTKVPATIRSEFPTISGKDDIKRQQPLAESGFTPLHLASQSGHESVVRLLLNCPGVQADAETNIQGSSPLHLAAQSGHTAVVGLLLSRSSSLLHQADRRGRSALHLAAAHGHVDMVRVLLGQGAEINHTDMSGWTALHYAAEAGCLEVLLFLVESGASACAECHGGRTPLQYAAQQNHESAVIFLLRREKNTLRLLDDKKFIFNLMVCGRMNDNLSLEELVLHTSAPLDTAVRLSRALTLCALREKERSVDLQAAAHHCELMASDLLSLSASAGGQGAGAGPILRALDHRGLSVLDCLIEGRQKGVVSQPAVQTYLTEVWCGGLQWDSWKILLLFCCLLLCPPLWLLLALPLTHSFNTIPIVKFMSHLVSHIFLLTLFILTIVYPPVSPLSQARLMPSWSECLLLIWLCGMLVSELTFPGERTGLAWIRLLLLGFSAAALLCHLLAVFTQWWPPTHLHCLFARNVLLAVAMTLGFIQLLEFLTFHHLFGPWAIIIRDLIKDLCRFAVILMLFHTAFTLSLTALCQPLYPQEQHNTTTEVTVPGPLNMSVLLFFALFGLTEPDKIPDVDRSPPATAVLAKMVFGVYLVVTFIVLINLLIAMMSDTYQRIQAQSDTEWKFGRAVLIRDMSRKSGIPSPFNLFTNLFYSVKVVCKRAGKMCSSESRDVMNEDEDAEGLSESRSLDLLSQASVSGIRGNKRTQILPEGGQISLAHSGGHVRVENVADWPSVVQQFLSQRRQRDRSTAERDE

Structure (SMILES): CN1C(=O)C(=Cc2sc(=O)n(-c3ccccc3)c2N2CCCCC2)C(=O)N(C)C1=O
- EC50 [1]: > 3.32 µM (inactive)
- EC50 [2]: 4.56 µM (inconclusive)
- EC50 [3]: 10.7 µM (not active)
- EC50 [4]: 19.9 µM (inconclusive)

Structure (SMILES): COc1cc(NC(=O)c2ccccn2)ccc1Cl
- EC50 [5]: 1.04 µM (inactive)
- Activity EC50 [6]: 313 µM
- EC50 [7]: 943 nM (inactive)

Structure (SMILES): CC(C)N(CCNC(=O)c1ccc(CNS(=O)(=O)c2ccc(Br)cc2)cc1)Cc1ccc(Br)cc1
- IC50 [8]: 2.03 µM (active)
- IC50 [9]: > 32 µM (inactive)
- IC50 [10]: > 32 µM (inactive)
- IC50 [11]: > 20 µM (inactive)

Structure (SMILES): COc1ccc(CNC(=O)C(C)OC(=O)c2c(C)nn(Cc3ccccc3)c2Cl)cc1 (centres undefined)
- EC50 [12]: > 50 µM (inactive)

Structure (SMILES): COc1ccc(/C=N/Nc2nc(N3CCCC3)nc(N3CCCC3)n2)cc1
- IC50 [13]: > 100 µM (not active)
- IC50 [14]: > 100 µM (inactive)
